Test results from patent publication US20050043245A1, “Non-mammalian GnRH analogs and uses thereof in the immune system” (priority 2003, published 2005).
Square brackets hold non-standard residues; d marks the D form. Ends that are not written are not given here. Peptide text beside a SMILES is read from it. pGlu = O=C1CC[C@@H](C(=O)O)N1; azaGly = NNC(=O)O

Assays:
human leukocytes = test: Cytokine release from cultured human leukocytes; type: cell-based; details: for effect on IL-4 production / effect on IL-8 production / effect on IL-10 production / effect on Interferon γ (INFγ) production: 2×10^−9 to 2×10^−7 M at 1, 3 and 20 hours; for activity on immune systems cytokines: compared among GnRH forms, varying doses
Procedure: Tissues of the immune system have been examined for the ability of their cells in vitro to respond to GnRH II (SEQ ID NO: 6) in culture medium. The media from cell cultures of immune system tissues have been examined for the release of cytokine into the medium after incubation with and without GnRH II analog (SEQ ID NO: 2).
Cell cultures of human leukocytes tissues have been prepared. […] The release of cytokines into the medium have been determined and compared for each form of GnRH studied.
We studied the effect of cytokines primarily produced by T cells. […] Concentrations of 2×10^−9 to 2×10^−7 M at 1, 3 and 20 hours were studied.
We have also studied cytokine produced primarily by B cells and macrophages. […] This is consistent with opposing activities followed by downregulation of the receptors with chronic high concentrations of the ligand.
Using our GnRH II analog (SEQ ID NO: 2) an inhibition of GM-CSF was clearly apparent after 20 hours of exposure.

[1] = Whole blood, plasma and serum stability of GnRH II analog; type: in vitro ADME
Procedure: FIG. 2 is a graph showing stability of GnRH II analog in blood and plasma. GnRH II Analog is stable throughout twenty-four hour of incubation in plasma and for the seventeen hours in serum following the initial serum formation.
The enzymatic degradation of the non-mammalian GnRH (SEQ ID NO: 6) and its analog (SEQ ID NO: 2) were studied using whole blood and plasma stability studies. A peptidase present in the immune system was used. Non-mammalian GnRH analogs (SEQ ID NO: 2) were designed with these specific criteria in mind. The stability of these non-mammalian GnRH analogs (SEQ ID NO: 2) to the enzymatic activity of the peptidase and in immune system cells were examined.
Each of these analogs was then studied for their ability to resist degradation over time of incubation with the immune system cells at 37° C. The reaction was stopped by freezing and the remaining GnRH I substrate, GnRH II substrate or non-mammalian analog was directly quantified by radioimmunoassay.
Studies using whole immune system cells were also performed. […] FIG. 2 is a graph showing stability of GnRH II in blood and plasma.

immune system receptor = test: Immune system GnRH receptor binding; parameters: species or system human
Source text: The receptor binding activity of non-mammalian GnRH (SEQ ID NO: 6 and SEQ ID NO: 7) and non-mammalian GnRH analogs (SEQ ID NO: 2 and SEQ ID NO: 4) of the present invention will be compared. There is a human non-mammalian GnRH receptor which is distinct from the GnRH I receptor at the pituitary. […] They have also been designed to limit degradation by the immune system enzymes, present in lymphatic circulation. Binding activity of the newly synthesized non-mammalian GnRH analogs (SEQ ID NO: 2 and SEQ ID NO: 4) has been studied in plasma.
The newly synthesized non-mammalian GnRH analogs (SEQ ID NO: 2 and SEQ ID NO: 4) and other commercially available analogs have been used in receptor binding studies in plasma and enzyme stability study described here. On the basis of these studies, the most receptor potent and most enzyme-stable analogs have been chosen for further biopotency studies. GnRH receptors have been purified from the fractions from immune system tissues. The purification procedure for the GnRH receptor utilized ethanol precipatation of the receptor and not the GnRH. The remaining non-mammalian GnRH binding assays activity using ^125I-D-Arg-GnRH II-Aza-Gly-2^125 label and GnRH II have been performed. Receptors from two different tissues from the same type of immune system cells have been used to study each of these analogs. […]

rhesus monkeys = details: chronic administration, long-acting; cited from earlier work
[2] = target: T1, human pituitary GnRH receptor (Homo sapiens, UniProt P30968); details: cited from earlier work
T1 sequence (P30968 1-328): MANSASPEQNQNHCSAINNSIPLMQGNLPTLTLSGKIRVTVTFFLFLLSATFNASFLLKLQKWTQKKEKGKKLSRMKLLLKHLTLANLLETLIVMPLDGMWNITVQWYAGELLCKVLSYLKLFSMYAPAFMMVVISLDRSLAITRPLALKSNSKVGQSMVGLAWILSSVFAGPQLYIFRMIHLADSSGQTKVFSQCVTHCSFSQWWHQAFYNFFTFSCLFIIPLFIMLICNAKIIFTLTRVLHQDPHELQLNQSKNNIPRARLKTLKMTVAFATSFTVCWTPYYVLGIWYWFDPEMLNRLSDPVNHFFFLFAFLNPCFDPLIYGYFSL

T cells = details: effects only seen after twenty-four hours; cited from earlier work
placental GnRH receptor = details: cited from earlier work
human placental explants = details: in vitro; cited from earlier work
[3] = after one hour of treatment, still observed at 3 and 20 hours

Row | Molecule | effect on IL-4 production (human leukocytes) | effect on IL-8 production (human leukocytes) | effect on IL-10 production (human leukocytes) | effect on Interferon γ (INFγ) production (human leukocytes) | effect on Interleukin 12 (IL-12) (human leukocytes; [3]) | affinity for the immune system receptor relative to GnRH I (immune system receptor) | activity on immune systems cytokines (human leukocytes) | affinity for the human pituitary GnRH receptor [2] | affinity for the placental GnRH receptor (placental GnRH receptor) | further results
1 | CCNC(=O)[C@@H]1CCCN1C(=O)[C@H](CCCNC(=N)N)NC(=O)[C@H](CC(C)C)NC(=O)[C@@H](COC(C)(C)C)NC(=O)[C@H](Cc1ccc(O)cc1)NC(=O)[C@H](CO)NC(=O)[C@H](Cc1c[nH]c2ccccc12)NC(=O)[C@H](Cc1cnc[nH]1)NC(=O)[C@@H]1CCC(=O)N1 [Buserelin] | no effects | no effects | no effects | no effects | inhibited | – | – | – | – | –
2 | N=C(N)NCCC[C@@H](NC(=O)[C@H](Cc1c[nH]cn1)NC(=O)[C@H](CO)NC(=O)[C@H](Cc1c[nH]c2ccccc12)NC(=O)[C@H](Cc1c[nH]cn1)NC(=O)[C@@H]1CCC(=O)N1)C(=O)N[C@@H](Cc1c[nH]c2ccccc12)C(=O)N[C@@H](Cc1ccc(O)cc1)C(=O)N1CCC[C@H]1C(=O)NNC(N)=O [GnRH II analog, D-Arg-GnRH II-aza-Gly-amide] ([pGlu]HWSH[dR]WYP[azaGly]-NH2) | no effects | no effects | no effects | no effects | inhibited | greater affinity | most active | – | – | stability in serum ([1]; seventeen hours in serum following the initial serum formation): stable; stability in plasma ([1]; throughout twenty-four hour of incubation in plasma): stable; effect on GM-CSF release (human leukocytes; 20 hours): inhibition
3 | GnRH II: chicken II GnRH, natural non-mammalian GnRH isoform ([pGlu]HWSHGWYPG; ends and bridges not checked; listed as Gallus gallus) | no effects | no effects | no effects | no effects | – | – | greater activity | lesser affinity | higher affinity | contraceptive effect (rhesus monkeys): effective contraceptive agent; T cells adhesion and homing (T cells): stimulates; effect on Interleukin 12 (IL-12) (human leukocytes; at 3 hours): inhibition; effect on GM-CSF release (human leukocytes; high dose, 3 hrs): inhibits; effect on GM-CSF release (human leukocytes; low dose, 3 hrs): potent stimulant
4 | [N-Ac-Pro,D-p-Cl-Phe,D-Nal(2)]-GnRH I | – | – | – | – | – | – | – | – | – | hCG production/release (human placental explants): inhibition; placental prostanoids / basal prostaglandin production (human placental explants): inhibited; progesterone production (human placental explants): dramatically suppressed
5 | salmon GnRH analog: salmon GnRH sequence modified at the 6 position using D-Arg and at the 10 position (ethylamide or aza-Gly^10-NH2) | – | – | – | – | – | greater affinity | – | – | – | –
6 | salmon GnRH: natural non-mammalian GnRH isoform of salmon ([pGlu]HWSYGWLPG; ends and bridges not checked) | – | – | – | – | – | – | – | lesser affinity | higher affinity | –
